Literature values as cited in patent US11304968B2, “Pharmaceutical compositions comprising a hydroxyethylquercetin glucuronide” (JANSSEN PHARMACEUTICA NV, priority 2018, dated 2022).

How the values were obtained:
[1] = rat
[2] = humans, oral; baicalin 616 mg with baicalein 52.5 mg; wogonoside 117.2 mg with wogonin 32 mg
cortisol levels = conditions: depressed, stressed rats
[3] = system: anxiety and depressive behaviors in the offspring; conditions: pregnant rats fed a high fat diet
[4] = not given; remark: listed apart in the source
cortisol response = conditions: in vitro
[5] = human, in vivo, po
[6] = rat, in vivo, po

In the case of `O=C(O)[C@H]1O[C@@H](Oc2cc3oc(-c4ccccc4)cc(=O)c3c(O)c2O)[C@H](O)[C@@H](O)[C@@H]1O` [baicalin], the solubility in water is given as “poorly soluble in water”, the site of absorption [1] is given as “preferentially absorbs in the rat stomach” and the “urinary COV of metabolites” value [2] is given as “about 10%”.
For `C[C@@H]1O[C@@H](OC[C@H]2O[C@@H](Oc3c(-c4ccc(OCCO)c(OCCO)c4)oc4cc(OCCO)cc(O)c4c3=O)[C@H](O)[C@@H](O)[C@@H]2O)[C@H](O)[C@H](O)[C@H]1O` [troxerutin, 7,3′,4′-trihydroxyethylrutoside], the “effect on cortisol levels” value (cortisol levels) is listed as “decreased cortisol levels” and the “anxiety and depressive behaviors in the offspring” value [3] is listed as “reduced anxiety and depressive behaviors in the offspring”.
In the case of `O=C(O)[C@H]1O[C@@H](Oc2cc3oc(-c4ccc(O)cc4)cc(=O)c3c(O)c2O)[C@H](O)[C@@H](O)[C@@H]1O` [scutellarin], the solubility in water is given as “poorly soluble in water” and the pKa [4] is given as “about 2.7”.
For `C[C@@H]1O[C@@H](OC[C@H]2O[C@@H](Oc3c(-c4ccc(O)c(O)c4)oc4cc(OCCO)cc(O)c4c3=O)[C@H](O)[C@@H](O)[C@@H]2O)[C@H](O)[C@H](O)[C@H]1O` [MonoHER, 7-monohydroxyethylrutoside], the “effect on cortisol response and cortisol resistance” value (cortisol response) is listed as “protects the proper cortisol response and decreases cortisol resistance”.
For “mono-3′-O-hydroxyethyl quercetin-glucuronide [Mono-3′-O-HEQG]”, the “volunteers in whom the metabolite was detectable” value [5] is given as 13 of the 16 and the detectability as metabolite [6] is given as “not detectable”.
